# ChEMBL document CHEMBL1146625, “The kinetics of binding to p38MAP kinase by analogues of BIRB 796” (Bioorg Med Chem Lett, 2003)
# Molecular target: T1, Mitogen-activated protein kinase 14 (Homo sapiens, UniProt Q16539)
# Assay: Binding affinity for Mitogen-activated protein kinase p38 alpha
# T1 sequence (Q16539 whole entry): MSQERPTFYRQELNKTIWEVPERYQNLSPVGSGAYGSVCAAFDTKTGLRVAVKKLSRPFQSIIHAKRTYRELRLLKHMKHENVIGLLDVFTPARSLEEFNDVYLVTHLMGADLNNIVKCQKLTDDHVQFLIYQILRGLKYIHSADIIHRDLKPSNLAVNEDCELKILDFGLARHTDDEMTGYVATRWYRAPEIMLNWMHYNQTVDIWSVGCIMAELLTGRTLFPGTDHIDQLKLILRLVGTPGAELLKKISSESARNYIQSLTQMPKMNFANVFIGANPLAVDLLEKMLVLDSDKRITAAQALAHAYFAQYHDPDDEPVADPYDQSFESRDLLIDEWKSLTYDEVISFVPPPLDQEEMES
row,SMILES,Kd
1,CC(C)c1cc(NC(=O)Nc2ccc(OCCN3CCOCC3)c3ccccc23)n(-c2ccccc2)n1,5.9 nM
2,Cc1ccc(-n2nc(C(C)(C)CO)cc2NC(=O)Nc2ccc(OCCN3CCOCC3)c3ccccc23)cc1,16 nM
3,Cc1ccc(-n2nc(C(C)(C)C)cc2NC(=O)Nc2ccc(CCCN3CCOCC3)c3ccccc23)cc1,1.2 nM
4,Cc1ccc(-n2nc(C(C)(C)C)cc2NC(=O)Nc2ccc(OCCN3CCOCC3)c3ccccc23)cn1,1.1 nM
5,O=C(Nc1ccc(OCCN2CCOCC2)c2ccccc12)Nc1ccnn1-c1ccccc1,2000 nM
6,COc1cc(NC(=O)Nc2cc(C(C)(C)C)nn2-c2ccc(C)cc2)c2ccccc2c1,9.4 nM
7,COc1cc(NC(=O)Nc2cc(C(C)(C)C)nn2-c2ccc(C)cc2)c2ccccc2c1OCCN1CCOCC1,14 nM
8,CN(C)Cc1cccc(-n2nc(C(C)(C)C)cc2NC(=O)Nc2ccc(OCCN3CCOCC3)c3ccccc23)c1,16 nM
9,Cc1ccc(-n2nc(C(C)(C)C)cc2NC(=O)Nc2ccc(OCCN3CCOCC3)c3ccccc23)cc1CN(C)C,4.8 nM
10,Cn1nc(C(C)(C)C)cc1NC(=O)Nc1ccc(OCCN2CCOCC2)c2ccccc12,23 nM
11,Cc1ccc(-n2nc(C(C)(C)C)cc2NC(=O)Nc2ccccc2)cc1,22 nM
12,CC(C)(C)c1cc(NC(=O)Nc2ccc(OCCN3CCOCC3)c3ccccc23)n(-c2ccccc2)n1,0.097 nM
13,Cc1ccc(-n2nc(C(C)(C)C)cc2NC(=O)Nc2ccc(OCCN3CCOCC3)c3ccccc23)cc1C(=O)O,2.5 nM
14,Cc1ccc(-n2nc(C(C)(C)C)cc2NC(=O)Nc2cccc3ccccc23)cc1,1.1 nM

# Molecular target: T1, Mitogen-activated protein kinase 14
# Description: Rate of dissociation from Mitogen-activated protein kinase p38 alpha
row,SMILES,k off
1,Cc1ccc(-n2nc(C(C)(C)C)cc2NC(=O)Nc2ccc(OCCN3CCOCC3)cc2)cc1,0.0039 s⁻¹
2,Cc1ccc(-n2nc(C(C)(C)C)cc2NC(=O)Nc2ccc(OCCN3CCOCC3)c3ccccc23)cc1C(=O)O,6.2e-05 s⁻¹

# Molecular target: T1, Mitogen-activated protein kinase 14
# Remark: another data set of the same source
# Description: Rate of association to Mitogen-activated protein kinase p38 alpha
row,SMILES,k on
1,Cc1ccc(-n2nc(C(C)(C)C)cc2NC(=O)Nc2ccc(OCCN3CCOCC3)cc2)cc1,13000 M⁻¹ s⁻¹
2,Cc1ccc(-n2nc(C(C)(C)C)cc2NC(=O)Nc2ccc(OCCN3CCOCC3)c3ccccc23)cc1C(=O)O,25200 M⁻¹ s⁻¹
